Reference: ChEMBL document CHEMBL1135163, “Design, synthesis, and evaluation of postulated transient intermediate and substrate analogues as inhibitors of 4-hydroxyphenylpyruvate dioxygenase” (Bioorg Med Chem Lett, 2002)

Biological target: 4-hydroxyphenylpyruvate dioxygenase (Sus scrofa, UniProt Q02110)
Assay: In vitro inhibition against of 4-Hydroxyphenylpyruvate dioxygenase (4-HPPD) from pig liver by the enol borate method

Sequence of 4-hydroxyphenylpyruvate dioxygenase (Q02110 whole entry): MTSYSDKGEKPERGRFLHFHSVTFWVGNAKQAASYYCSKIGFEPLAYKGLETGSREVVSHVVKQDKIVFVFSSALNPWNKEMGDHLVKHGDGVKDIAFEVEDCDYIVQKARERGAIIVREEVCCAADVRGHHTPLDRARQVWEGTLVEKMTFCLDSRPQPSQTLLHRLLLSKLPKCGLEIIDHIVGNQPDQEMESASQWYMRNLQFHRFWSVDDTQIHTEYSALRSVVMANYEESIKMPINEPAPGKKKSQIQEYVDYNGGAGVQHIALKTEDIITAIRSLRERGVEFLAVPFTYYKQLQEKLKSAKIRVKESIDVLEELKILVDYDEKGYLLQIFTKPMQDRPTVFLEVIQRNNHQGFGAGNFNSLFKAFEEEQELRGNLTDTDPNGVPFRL

| IC50 | SMILES |
| --- | --- |
| 73 µM | CCOC(=O)COc1ccc(O)cc1 |
| 120 µM | COC(=O)C1OC1(C)c1ccccc1 (stereo unspecified) |
| 0.5 µM | O=C1OCC(c2ccccc2)=C1O |
| 93 µM | CC(Oc1ccc(O)cc1)C(=O)O (stereo unspecified) |
| > 900 µM | C=C(c1ccccc1)C(O)C(=O)OC (stereo unspecified) |
| > 900 µM | C=C(c1ccccc1)C(O)C(=O)O (stereo unspecified) |
| 588 µM | CCOC(=O)C(C)Oc1ccc(O)cc1 (stereo unspecified) |
| 500 µM | COC(=O)CC12OC1C(=O)C(OC)=CC2=O (stereo unspecified) |
| 223 µM | COC(=O)COc1ccc(O)cc1 |
| 150 µM | COC(=O)CC1=CC(=O)C(OC)=CC1=O |

| SMILES | IC50 |
| --- | --- |
| O=C(O)COc1ccc(O)cc1 | 6 µM |
